Laboratory results from ChEMBL document CHEMBL1156526, “Specificity and mechanism of action of EHT 1864, a novel small molecule inhibitor of Rac family small GTPases” (2007).
Activity calls are given as the source filed them.

Tests used:
NIH3T3 [1] = assay: Inhibition on Tiam1 C1199 mutant-induced focus forming activity in mouse NIH3T3 cells at 5 uM; type: cell-based
U-87 MG [2] = assay: Reduction of RhoA-GTPase level in platelet derived growth factor-induced human U87MG cells measured with GST-rhotekin-RBD by pulldown assay; type: functional, cell-based; details: U-87MG ATCC
[3] = biological target: Ras-related C3 botulinum toxin substrate 3 (Homo sapiens) (UniProt P60763); assay: Binding affinity at Rac3 at 1 uM by fluorescence anisotropy
[4] = biological target: Ras-related C3 botulinum toxin substrate 2 (Homo sapiens) (UniProt P15153); assay: Binding affinity at Rac2 at 1 uM by fluorescence anisotropy
NIH3T3 [5] = assay: Inhibition of bradykinin-induced filopodia formation in mouse NIH3T3 cells at 5 uM; type: functional, cell-based
NIH3T3 [6] = assay: Inhibition on Rac1 61L-induced focus forming activity in mouse NIH3T3 cells at 5 uM; type: cell-based
NIH3T3 [7] = assay: Inhibition on Rac1 61L […]-induced focus forming activity in mouse NIH3T3 cells at 5 uM; type: cell-based
[8] = biological target: Ras-related C3 botulinum toxin substrate 1 (Mus musculus) (UniProt P63001); assay: Effect on Rac1 binding to RhoGDI1 in mouse NIH3T3 cells by Western blot analysis; type: cell-based
NIH3T3 [9] = assay: Inhibition of lysophosphatidic acid-induced actin stress fibers formation in mouse NIH3T3 cells at 5 uM; type: functional, cell-based
NIH3T3 [10] = assay: Inhibition of Ras-induced cell growth in H-Ras 61L expressing mouse NIH3T3 cells at 5 uM by MTT assay; type: cell-based
NIH3T3 [11] = assay: Inhibition of platelet derived growth factor-induced lamellipodia formation in mouse NIH3T3 cells at 5 uM; type: functional
[12] = biological target: Ras-related C3 botulinum toxin substrate 1 (Mus musculus) (UniProt P63001); assay: Effect on Rac1 binding to RhoGDI2 in mouse NIH3T3 cells by Western blot analysis; type: cell-based
[13] = biological target: Cell division control protein 42 homolog (Homo sapiens) (UniProt P60953); assay: Inhibition of Cdc42-PAK-RBD complex formation in platelet derived growth factor-induced human U87MG cells at 50 uM by fluorescence anisotropy; type: cell-based; details: U-87MG ATCC
Cell division control protein 42 homolog (Homo sapiens), sequence (P60953 whole entry, looked up): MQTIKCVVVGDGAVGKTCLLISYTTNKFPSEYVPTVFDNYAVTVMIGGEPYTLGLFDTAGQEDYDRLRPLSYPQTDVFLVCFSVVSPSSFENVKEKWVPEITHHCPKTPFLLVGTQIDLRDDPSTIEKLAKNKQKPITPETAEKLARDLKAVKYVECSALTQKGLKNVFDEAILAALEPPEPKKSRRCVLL

[14] = biological target: Cell division control protein 42 homolog (Homo sapiens) (UniProt P60953); assay: Inhibition of platelet derived growth factor-induced endogenous association of Cdc42 with GST-PAK-RBD in human U87MG cells after 5 mins by Western blot analysis; type: cell-based; details: U-87MG ATCC
293T = assay: Effect on interaction between Rac1 15A mutant and human Tiam1 C1199 mutant expressed in 293T cells by Western blot analysis; type: cell-based
NIH3T3 [15] = assay: Inhibition of Rac1 61L mutant-induced cellular transformation in mouse NIH3T3 cells at 5 uM after 3 to 5 weeks; type: cell-based
NIH3T3 [16] = assay: Effect on interaction between Rac1 15A mutant and human Tiam1 C1199 mutant expressed in NIH3T3 cells by Western blot analysis; type: cell-based
NIH3T3 [17] = assay: Inhibition of H-Ras 61L mutant-induced focus formation in mouse NIH3T3 cells at 5 uM after 14 days; type: cell-based
[18] = biological target: Cell division control protein 42 homolog (Homo sapiens) (UniProt P60953); assay: Binding affinity at Cdc42 at 1 uM by fluorescence anisotropy
U-87 MG [19] = assay: Reduction of Rac1-GTPase level in platelet derived growth factor-induced human U87MG cells measured with GST-rhotekin-RBD by pulldown assay; type: functional, cell-based; details: U-87MG ATCC
U-87 MG [20] = assay: Reduction of Cdc42-GTPase level in platelet derived growth factor-induced human U87MG cells measured with GST-PAK-RBD by pulldown assay; type: functional, cell-based; details: U-87MG ATCC
U-87 MG [21] = assay: Reduction of Rac1-GTPase level in platelet derived growth factor-induced human U87MG cells measured with GST-PAK-RBD by pulldown assay; type: functional, cell-based; details: U-87MG ATCC
U-87 MG [22] = assay: Reduction of RhoA-GTPase level in platelet derived growth factor-induced human U87MG cells measured with GST-PAK-RBD by pulldown assay; type: functional, cell-based; details: U-87MG ATCC
U-87 MG [23] = assay: Reduction of Cdc42-GTPase level in platelet derived growth factor-induced human U87MG cells measured with GST-rhotekin-RBD by pulldown assay; type: functional, cell-based; details: U-87MG ATCC

O=c1cc(CN2CCOCC2)occ1OCCCCCSc1ccnc2cc(C(F)(F)F)ccc12
active: Activity (NIH3T3 [1]) | Activity (U-87 MG [2]) | Activity [3] | Activity [4] | Activity (NIH3T3 [5]) | Activity [8] | Activity (NIH3T3 [9]) | Activity (NIH3T3 [10]) | Activity [12] | Activity (NIH3T3 [15])
80%: inhibition (NIH3T3 [6]) | inhibition at 5 µM (NIH3T3 [11])
inactive: Activity (NIH3T3 [7]) | Activity [13] | Activity [14] | Activity (293T) | Activity (NIH3T3 [16]) | Activity (NIH3T3 [17]) | Activity [18]

O=c1cc(CN2CCNCC2)occ1OCCCCCSc1ccnc2cc(C(F)(F)F)ccc12
inactive: Activity (U-87 MG [2]) | Activity (U-87 MG [19]) | Activity (U-87 MG [20]) | Activity (U-87 MG [21]) | Activity (U-87 MG [22]) | Activity (U-87 MG [23])

CCN(CC)CCCC(C)Nc1nc(C)cc(Nc2ccc3nc(C)cc(N)c3c2)n1 (stereo unspecified)
inactive: Activity (NIH3T3 [15])
